These results are taken from patent publication US20220220135A1 (BAR-ILAN UNIVERSITY, priority 2019, published 2022).

Data set [1] has as its target T1, NTPDase1 (Homo sapiens, UniProt P49961).
T1 sequence (P49961 1-510): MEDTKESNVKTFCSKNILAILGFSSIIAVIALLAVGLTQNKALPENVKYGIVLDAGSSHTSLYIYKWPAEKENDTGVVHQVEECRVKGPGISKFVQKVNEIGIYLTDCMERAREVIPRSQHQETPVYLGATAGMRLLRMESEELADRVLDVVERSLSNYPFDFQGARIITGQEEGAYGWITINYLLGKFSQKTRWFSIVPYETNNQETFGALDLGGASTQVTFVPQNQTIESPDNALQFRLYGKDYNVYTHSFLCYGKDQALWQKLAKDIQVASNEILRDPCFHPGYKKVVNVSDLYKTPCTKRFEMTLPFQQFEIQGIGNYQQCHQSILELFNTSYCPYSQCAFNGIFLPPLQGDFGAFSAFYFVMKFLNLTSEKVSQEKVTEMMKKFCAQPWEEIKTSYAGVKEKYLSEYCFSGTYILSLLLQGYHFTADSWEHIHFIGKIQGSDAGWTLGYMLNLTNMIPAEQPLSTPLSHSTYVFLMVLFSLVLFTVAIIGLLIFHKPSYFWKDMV
The data set is described as follows: Stability to hydrolysis by human NTPDase1. The settings on record: analogue 100 μM; activity with 100 μM ATP = 100%. It is filed as in vitro ADME. The protocol:
(§1) Uridine 5′-Pα,α-phosphorodithioate analogues, 9-12, were tested for their stability to degradation by NPP1 and NTPDases. These enzymes are involved in the metabolism of extracellular nucleotides. Analogues 9-12 were not hydrolyzed by hNPP1 (Table 2). […] Analogue 10 was hydrolyzed by hNTPDase1, -2 and -3 at 30-39% the rate of ATP and was slightly hydrolyzed by human NTPDase8 at 16% the rate of ATP.
(§2) Analogues 9-12 were incubated in the presence of the indicated ectonucleotidase at a concentration of 100 μM. The activity with 100 μM ATP was set as 100%, which was 329±108, 302±34, 263±51, 195±76 nmol of Pi·min−1·mg of protein−1 for NTPDase1, -2, -3 and -8, respectively, and 34±7 nmol for NPP1. Data presented are the mean±SEM of results from two experiments.

The target in data set [2] is T2, NTPDase2 (Homo sapiens, UniProt Q9Y5L3).
T2 sequence (Q9Y5L3 1-495): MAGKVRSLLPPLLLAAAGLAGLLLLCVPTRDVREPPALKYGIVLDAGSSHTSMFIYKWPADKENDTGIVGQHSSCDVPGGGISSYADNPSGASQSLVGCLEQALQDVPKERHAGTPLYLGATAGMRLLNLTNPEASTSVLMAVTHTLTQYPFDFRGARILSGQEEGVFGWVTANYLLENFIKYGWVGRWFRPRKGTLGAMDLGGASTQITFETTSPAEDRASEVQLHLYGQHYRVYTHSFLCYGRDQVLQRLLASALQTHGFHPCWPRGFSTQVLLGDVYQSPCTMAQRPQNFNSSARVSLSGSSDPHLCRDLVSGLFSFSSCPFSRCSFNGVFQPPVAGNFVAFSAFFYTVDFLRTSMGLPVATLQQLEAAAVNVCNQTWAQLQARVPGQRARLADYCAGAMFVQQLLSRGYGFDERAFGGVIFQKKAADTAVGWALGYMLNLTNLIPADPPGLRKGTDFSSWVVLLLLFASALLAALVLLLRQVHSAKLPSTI
Briefly: Stability to hydrolysis by human NTPDase2. It is filed as in vitro ADME. The settings on record: analogue 100 μM; activity with 100 μM ATP = 100%. The protocol: as §1, §2

In data set [3] the target is T3, human P2Y1R (Homo sapiens, UniProt P47900).
T3 construct: expressed in transfected cells; host or cells: 1321N1 astrocytoma cells
The data set is described as follows: Calcium mobilization in 1321N1 astrocytoma cells expressing human P2Y1R. The format is cell-based. As to the method: Given the structural resemblance of 106-109 to the natural ligands of P2Y receptors, adenine and uracil nucleotides as natural substrates, were assessed for agonist potency on the human P2Y1, P2Y2, P2Y4, and P2Y6 receptor. To evaluate NPP1 selectivity of analogs 106-109, they were tested for their ability to activate of the uridine-nucleotide sensitive human recombinant P2Y1,2,4,6-receptors. The agonist potencies of this series of nucleotide analogues on the Gq protein-coupled human P2Y1R, P2Y2R, P2Y4R, and P2Y6R was determined by assessing its ability to induce calcium mobilization in stably transfected 1321N1 astrocytoma cells (Table 8). The nucleotide analogues were found in calcium mobilization assays to activate the P2Y2R with mid-micromolar potency.

Data set [4] addresses T4, NPP1 (Homo sapiens, UniProt P22413).
T4 sequence (P22413 1-925): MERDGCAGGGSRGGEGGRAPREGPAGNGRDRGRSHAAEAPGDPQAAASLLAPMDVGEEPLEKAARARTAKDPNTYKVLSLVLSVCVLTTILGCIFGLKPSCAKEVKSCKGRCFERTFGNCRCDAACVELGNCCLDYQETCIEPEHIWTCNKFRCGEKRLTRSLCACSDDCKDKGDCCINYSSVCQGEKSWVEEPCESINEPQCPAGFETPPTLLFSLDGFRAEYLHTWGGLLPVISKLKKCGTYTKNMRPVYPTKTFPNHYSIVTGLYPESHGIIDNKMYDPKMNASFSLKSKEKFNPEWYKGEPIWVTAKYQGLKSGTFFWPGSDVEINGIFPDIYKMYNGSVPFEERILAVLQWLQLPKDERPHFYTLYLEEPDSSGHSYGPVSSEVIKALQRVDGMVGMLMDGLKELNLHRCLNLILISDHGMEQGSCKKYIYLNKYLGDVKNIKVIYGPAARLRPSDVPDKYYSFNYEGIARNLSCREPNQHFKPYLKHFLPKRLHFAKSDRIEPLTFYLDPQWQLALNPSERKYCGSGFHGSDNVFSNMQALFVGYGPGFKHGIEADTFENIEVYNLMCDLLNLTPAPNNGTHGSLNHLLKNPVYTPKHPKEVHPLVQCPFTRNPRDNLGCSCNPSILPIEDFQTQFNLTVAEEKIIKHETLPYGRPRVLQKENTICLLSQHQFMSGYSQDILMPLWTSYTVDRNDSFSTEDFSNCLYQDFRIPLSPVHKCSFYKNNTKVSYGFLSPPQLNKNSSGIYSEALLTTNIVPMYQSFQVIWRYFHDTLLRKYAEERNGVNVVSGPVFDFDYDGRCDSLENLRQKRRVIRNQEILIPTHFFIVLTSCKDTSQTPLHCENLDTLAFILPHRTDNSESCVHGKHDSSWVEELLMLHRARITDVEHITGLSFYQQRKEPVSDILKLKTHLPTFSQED
The data set is described as follows: Inhibition of human NPP1, 100 μM p-Nph-5′-TMP as substrate (Tables 5, 6).

T3 sequence (P47900 whole entry): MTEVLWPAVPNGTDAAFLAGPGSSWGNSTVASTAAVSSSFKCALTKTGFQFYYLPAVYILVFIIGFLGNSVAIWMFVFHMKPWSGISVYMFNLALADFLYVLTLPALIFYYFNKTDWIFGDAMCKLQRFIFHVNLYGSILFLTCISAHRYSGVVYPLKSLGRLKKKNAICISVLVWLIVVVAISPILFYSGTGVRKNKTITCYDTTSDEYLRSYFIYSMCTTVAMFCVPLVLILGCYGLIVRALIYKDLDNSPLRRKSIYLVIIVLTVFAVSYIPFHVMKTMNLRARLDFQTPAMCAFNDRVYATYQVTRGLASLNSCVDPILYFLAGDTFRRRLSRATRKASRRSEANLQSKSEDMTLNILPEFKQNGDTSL

On to `O=c1ccn([C@@H]2O[C@H](COP(=S)(S)OP(=O)(O)OP(=O)(O)O)[C@@H](O)[C@H]2O)c(=O)[nH]1` (some centres unmarked) [Analogue 10], for which the “Relative activity (%) ± SEM of ATP hydrolysis, NTPDase1” value in data set [1] is 30.8 ± 3.2%. In addition, in data set [2], the “Relative activity (%) ± SEM of ATP hydrolysis, NTPDase2” value was found to be 32.0 ± 3.3%.

`Nc1ncnc2c1ncn2COCCOP(=S)(S)OP(=O)(O)O` (centres unmarked) [compound 106]: the “% activation at 10 μM, P2Y1” value in data set [3] is listed as 2 ± 2%. In data set [4], this compound showed an inhibitory constant (Ki) of 1810 nM. The inhibition at 10 µM in data set [4] (read-out: % inhibition ± SEM at 10 μM, human NPP1) was 67 ± 1%.
